Reference: ChEMBL document CHEMBL3885881, “DrugMatrix”

Organism: Rattus norvegicus
Experiment: DrugMatrix - Regimen: Daily Repeat
Type: toxicity, organism-based, Sprague-Dawley
Set-up: regimen Daily Repeat, gender Male, age 6-8 weeks
Conditions: in vivo, po, route oral GAVAGE, vehicle .5 % CMC; for ABSOLUTE BASOPHIL / ABSOLUTE EOSINOPHIL / ABSOLUTE LYMPHOCYTE / ABSOLUTE MONOCYTE / ABSOLUTE SEGMENTED NEUTROPHIL / BASOPHIL / EOSINOPHIL / ERYTHROCYTE COUNT / HEMATOCRIT / HEMOGLOBIN / LEUKOCYTE COUNT / LYMPHOCYTE / MEAN CORPUSCULAR HEMOGLOBIN / MEAN CORPUSCULAR HEMOGLOBIN CONCENTRATION / MEAN CORPUSCULAR VOLUME / MONOCYTE / NEUTROPHIL / NUCLEATED RED BLOOD CELLS / PLATELET COUNT: tissue Blood; for ALANINE AMINOTRANSFERASE / ALBUMIN / ALKALINE PHOSPHATASE / ASPARTATE AMINOTRANSFERASE / BLOOD UREA NITROGEN / CARBON DIOXIDE / CHLORIDE / CHOLESTEROL / CREATINE PHOSPHOKINASE / CREATININE / GLUCOSE / LACTATE DEHYDROGENASE / LIPASE / PHOSPHORUS / POTASSIUM / SODIUM / TOTAL BILIRUBIN / TOTAL PROTEIN / URIC ACID: tissue Plasma
[1] = 20 mg/kg, 120 h, dose level Low, time 5 day
[2] = 1600 mg/kg, 72 h, dose level High, time 3 day
[3] = 1600 mg/kg, 120 h, dose level High, time 5 day

NC(=O)N1c2ccccc2CC(=O)c2ccccc21 [OXCARBAZEPINE]
ABSOLUTE BASOPHIL [1]: 0 CELLS/uL | ABSOLUTE EOSINOPHIL [1]: 112 CELLS/uL | ABSOLUTE LYMPHOCYTE [1]: 14390.67 CELLS/uL | ABSOLUTE MONOCYTE [1]: 0 CELLS/uL | ABSOLUTE SEGMENTED NEUTROPHIL [1]: 964 CELLS/uL | BASOPHIL [1]: 0% | EOSINOPHIL [1]: 0.67% | ERYTHROCYTE COUNT [1]: 5.76 x10E6/uL | HEMATOCRIT [1]: 35.97% | HEMOGLOBIN [1]: 14.53 G/DL | LEUKOCYTE COUNT [1]: 15.47 x10E3/uL | LYMPHOCYTE [1]: 93.33% | MEAN CORPUSCULAR HEMOGLOBIN [1]: 25.2 pg | MEAN CORPUSCULAR HEMOGLOBIN CONCENTRATION [1]: 40.4 G/DL | MEAN CORPUSCULAR VOLUME [1]: 62.37 fL | MONOCYTE [1]: 0% | NEUTROPHIL [1]: 6% | NUCLEATED RED BLOOD CELLS [1]: 0.33 /100WBC | PLATELET COUNT [1]: 1403.33 x10E3/uL | ALANINE AMINOTRANSFERASE [1]: 47.67 u/L | ALBUMIN [1]: 4.37 G/DL | ALKALINE PHOSPHATASE [1]: 374.67 u/L | ASPARTATE AMINOTRANSFERASE [1]: 83.33 u/L | BLOOD UREA NITROGEN [1]: 17 mg/dL | CARBON DIOXIDE [1]: 26.67 mmol/L | CHLORIDE [1]: 102.33 MEQ/L | CHOLESTEROL [1]: 67.67 mg/dL | CREATINE PHOSPHOKINASE [1]: 246.33 u/L | CREATININE [1]: 0.16 mg/dL | GLUCOSE [1]: 163.33 mg/dL | LACTATE DEHYDROGENASE [1]: 115.33 u/L | LIPASE [1]: 8.67 u/L | PHOSPHORUS [1]: 12.83 mg/dL | POTASSIUM [1]: 6.85 MEQ/L | SODIUM [1]: 146.7 MEQ/L | TOTAL BILIRUBIN [1]: 0.17 mg/dL | TOTAL PROTEIN [1]: 6.17 G/DL | URIC ACID [1]: 2.23 mg/dL | ABSOLUTE BASOPHIL [2]: 0 CELLS/uL | ABSOLUTE EOSINOPHIL [2]: 0 CELLS/uL | ABSOLUTE LYMPHOCYTE [2]: 14109.67 CELLS/uL | ABSOLUTE MONOCYTE [2]: 56.33 CELLS/uL | ABSOLUTE SEGMENTED NEUTROPHIL [2]: 1034 CELLS/uL | BASOPHIL [2]: 0% | EOSINOPHIL [2]: 0% | ERYTHROCYTE COUNT [2]: 6.38 x10E6/uL | HEMATOCRIT [2]: 39.5% | HEMOGLOBIN [2]: 15.47 G/DL | LEUKOCYTE COUNT [2]: 15.2 x10E3/uL | LYMPHOCYTE [2]: 93.33% | MEAN CORPUSCULAR HEMOGLOBIN [2]: 24.27 pg | MEAN CORPUSCULAR HEMOGLOBIN CONCENTRATION [2]: 39.2 G/DL | MEAN CORPUSCULAR VOLUME [2]: 61.93 fL | MONOCYTE [2]: 0.33% | NEUTROPHIL [2]: 6.33% | NUCLEATED RED BLOOD CELLS [2]: 0 /100WBC | PLATELET COUNT [2]: 1432 x10E3/uL | ALANINE AMINOTRANSFERASE [2]: 82.67 u/L | ALBUMIN [2]: 4.43 G/DL | ALKALINE PHOSPHATASE [2]: 485.33 u/L | ASPARTATE AMINOTRANSFERASE [2]: 91 u/L | BLOOD UREA NITROGEN [2]: 16.33 mg/dL | CARBON DIOXIDE [2]: 31 mmol/L | CHLORIDE [2]: 101 MEQ/L | CHOLESTEROL [2]: 73 mg/dL | CREATINE PHOSPHOKINASE [2]: 195 u/L | CREATININE [2]: 0.2 mg/dL | GLUCOSE [2]: 116 mg/dL | LACTATE DEHYDROGENASE [2]: 266 u/L | LIPASE [2]: 11 u/L | PHOSPHORUS [2]: 10.13 mg/dL | POTASSIUM [2]: 6.83 MEQ/L | SODIUM [2]: 145.67 MEQ/L | TOTAL BILIRUBIN [2]: 0.17 mg/dL | TOTAL PROTEIN [2]: 5.8 G/DL | URIC ACID [2]: 1.43 mg/dL | ABSOLUTE BASOPHIL [3]: 0 CELLS/uL | ABSOLUTE EOSINOPHIL [3]: 0 CELLS/uL | ABSOLUTE LYMPHOCYTE [3]: 15797.33 CELLS/uL | ABSOLUTE MONOCYTE [3]: 212.67 CELLS/uL | ABSOLUTE SEGMENTED NEUTROPHIL [3]: 2156.67 CELLS/uL | BASOPHIL [3]: 0% | EOSINOPHIL [3]: 0% | ERYTHROCYTE COUNT [3]: 5.81 x10E6/uL | HEMATOCRIT [3]: 36.23% | HEMOGLOBIN [3]: 14.8 G/DL | LEUKOCYTE COUNT [3]: 18.17 x10E3/uL | LYMPHOCYTE [3]: 87.33% | MEAN CORPUSCULAR HEMOGLOBIN [3]: 25.47 pg | MEAN CORPUSCULAR HEMOGLOBIN CONCENTRATION [3]: 40.83 G/DL | MEAN CORPUSCULAR VOLUME [3]: 62.33 fL | MONOCYTE [3]: 1% | NEUTROPHIL [3]: 11.67% | NUCLEATED RED BLOOD CELLS [3]: 0 /100WBC | PLATELET COUNT [3]: 1349.67 x10E3/uL | ALANINE AMINOTRANSFERASE [3]: 60.67 u/L | ALBUMIN [3]: 4.5 G/DL | ALKALINE PHOSPHATASE [3]: 338.67 u/L | ASPARTATE AMINOTRANSFERASE [3]: 86.33 u/L | BLOOD UREA NITROGEN [3]: 17.33 mg/dL | CARBON DIOXIDE [3]: 23.33 mmol/L | CHLORIDE [3]: 99 MEQ/L | CHOLESTEROL [3]: 93.67 mg/dL | CREATINE PHOSPHOKINASE [3]: 336.33 u/L | CREATININE [3]: 0.28 mg/dL | GLUCOSE [3]: 123 mg/dL | LACTATE DEHYDROGENASE [3]: 512.67 u/L | LIPASE [3]: 13 u/L | PHOSPHORUS [3]: 13.6 mg/dL | POTASSIUM [3]: 7.68 MEQ/L | SODIUM [3]: 142.17 MEQ/L | TOTAL BILIRUBIN [3]: 0.23 mg/dL | TOTAL PROTEIN [3]: 6.43 G/DL | URIC ACID [3]: 2.07 mg/dL
